The values that follow come from patent US6011015A, “Angiotensin II for improving fertilization” (Queen Mary & Westfield College, priority 1994, dated 2000).

Holding throughout (assay type): cell-based
Assay [1] relates to Human sperm. The assay can be described thus: Percentage motility of human sperm, counted from video recordings in a Makler chamber. Here is the method: Human sperm sample were obtained from 12 volunteers and patients attending the Newham Hospital assisted fertility clinic. Samples were suspended in modified minimum essential medium with Earle's salts (MEM) and glutamine and viewed in a Makler chamber using an Olympus inverted microscope fitted with an Olympus ARTF-2 video camera. Fields were recorded on video tape and percentage motility evaluated at 1 min and 5 min. After mixing with MEM alone (unstimulated controls) or with MEM containing 1 nmole/litre angiotensin II amide.
In practice, rigid use of this definition was rarely necessary as sperm were either completely immotile or progressed freely.
A series of six sperm samples, obtained from the same source as Example 1, were mixed either with unmodified MEM, or MEM containing DuP-753 (1 nmole/l).
Percentage motility was estimated in the same way as in Example 1.
(§1) Effect of Angiotensin II on Sperm Velocity Sperm samples were obtained from the same source as Example 1. One series of samples was kept as controls. To a second series Angiotensin II amide (10 nmole/l) was added. A third series was treated with monoclonal antibody to the AT1, receptor before angiotensin was added.
Sperm samples were obtained from the same source as Example 1. One series of samples was kept as controls. A second series was exposed to angiotensin II (1 μmole/l) for five minutes. A third series was exposed to angiotensin II (1 μmole/l) for 5 minutes and then DuP-753 (1 μmole/l) was added.
The percentage of motile sperm was measured using the same method as was used in Example 1.

Assay [2] has as its system Human sperm. The assay can be described thus: Forward progressive sperm velocity, timed manually across the Makler chamber grid. The settings on record: Angiotensin II amide (10 nmole/l); FIG. 3(a). As to the method:
as §1
Velocity was measured by timing forwardly progressive sperm traversing the grid on the Makler Chamber and timing them manually.

Assay [3] concerns Human sperm. As to the kind of experiment: Sperm motility by computer system (VCL and ALH). As to conditions: angiotensin II amide (1 nmole/l) versus unstimulated controls, over 30 minutes. As to the method:
Sperm samples were obtained from the same source as Example 1. One series of samples was kept as controls. TO a second series angiotensin II amide (1 nmole/l) was added.
Sperm motility was assayed by using a computer system which measures different aspects of sperm motility, namely curvilinear velocity (VCL) and amplitude of lateral head displacement (ALH).

Counter-ions that a name gives are not always drawn.

In the case of `CCCCc1nc(Cl)c(CO)n1Cc1ccc(-c2ccccc2-c2nn[nH]n2)cc1` [DuP-753, 2-n-butyl-4-chloro-5-hydroxymethyl-1-[(2'-(1H-tetrazol-5-yl)biphenyl-4-yl)methyl] imidazole, potassium salt, reference compound], the “percentage motility relative to the untreated controls” value in assay [1] (MEM containing DuP-753 (1 nmole/l), six sperm samples, FIG. 2) was “significantly decreased”. Moreover, in assay [1] (angiotensin II (1 μmole/l) for 5 minutes, then DuP-753 (1 μmole/l) added, FIG. 4), the “effect on the angiotensin II enhancement of the percentage of motile sperm” value was “generally reduced”.

“angiotensin II (DRVYIHPF; Angiotensin-2; UniProt P01019 25-32, looked up) [octapeptide hormone of the renin-angiotensin system]”: the “percentage motility after 5 minutes compared with percentage motility after 1 minute” value in assay [1] (MEM containing 1 nmole/litre angiotensin II amide, 12 human sperm samples, FIG. 1(b)) was “significantly different”. Also, the “percentage of sperm which were motile after 5 minutes compared with the controls” value in assay [1] (angiotensin II (1 μmole/l) for five minutes, in most samples, FIG. 4) was “enhanced”. In assay [2], the “forward progressive velocity compared with the untreated controls” value is listed as “significantly stimulated”.

With angiotensin II amide, the “curvilinear velocity (VCL)” value in assay [3] (FIGS. 6 and 8) is “stimulates”. In assay [3] (FIGS. 7 and 8), the “amplitude of lateral head displacement (ALH)” value is “stimulates”.
